# Reference: patent US12134587B2, “Reaction products and methods for making and using the same” (KOCH AGRONOMIC SERVICES, LLC, priority 2010, dated 2024)
# Tested on: nitrification of ammonium to nitrate in Greenville loamy soil
# Experiment: Soil incubation test of nitrogen transformations (ammonium-N and nitrate-N)
# Procedure: Three reaction products (Ex. 1-3) mixed with a urea solution to produce a liquid fertilizer solution were prepared and incubation tests were conducted. A comparative example of a urea only solution, i.e., a urea solution without a reaction product (C1), and a comparative example of a urea solution mixed with dicyandiamide (DCD) (C2) were also prepared and evaluated. For comparative example C2, the urea solution mixed with DCD was not reacted. In other words, the DCD was mixed with the urea solution to provide the fertilizer. A Control was also prepared that consisted of soil, i.e., no nitrogen source nor reaction product was added.
# Incubation tests were performed using each Example 1-3 to evaluate the nitrogen transformations for each sample. The effect of each reaction product (Ex. 1-3) on the nitrogen concentration in the soil as both ammonium-nitrogen and nitrate-nitrogen were evaluated at three different concentrations of the reaction products. More particularly, the concentration of DCD for a first set of samples was 0.75 wt. % (Table 1), a second set of samples was 1.5 wt. % (Table 2), and a third set of samples was 3 wt. % (Table 3), where the weight percents of the DCD concentration are based on the total weight of nitrogen in the urea solution.
# The soil used in the incubation tests was Greenville loamy soil (clay-loam, siliceous, thermic Plinthic Kandiudults). […] The phosphorous and sulfur concentrations were determined according to the Bray-1 test. The zinc concentration was determined according to the DTPA (diethylenetriaminepentaacetic acid) soil test.
# As used herein, the term “field capacity,” refers to the drained upper limit or moisture content below which there is no free drainage flow. During the one week incubation period the moisture was reduced to about 80%. For each test 50 g of soil was placed into a cup and each cup was covered with a lid having four holes to allow for aeration and to minimize water loss.
# Stock solutions containing each example were prepared by adding 2.15 g of urea and the corresponding amount of DCD (C2) or the reaction product (Ex. 1-3) to a 500 mL beaker to provide samples having 0.75 wt. % (Table 1), 1.5 wt. % (Table 2), and 3 wt. % (Table 3) DCD based on the total nitrogen concentration in the urea solution. After adding the urea (C1), urea plus DCD (C2), and urea plus the reaction products (Ex. 1-3), to the beakers, the contents of each beaker were diluted to 500 mL with distilled water to provide a stock solution. For the examples shown in Tables 1-3 below, 5 mL of the corresponding stock solution were introduced via a pipette onto each 50 g soil sample and the cover was placed thereon. The amount of nitrogen contained in each example (Ex. 1-3, C1, and C2) was 10 mg and the nitrogen was in the form of urea. The soil had at least an 80% field moisture capacity for each sample and if needed additional distilled water was used in order to achieve the 80% field moisture capacity.
# Soil extractions were made at 1 week intervals to determine the amount of ammonium-nitrogen and nitrate-nitrogen in each example. A total of 10 extractions were performed, namely at time=0 and after the 1st week, 2nd week, 3rd week, 4th week, 5th week, 6th week, 7th week, 8th week, and the […]. Extracting the nitrogen from each sample was done by adding 100 mL of a 2M potassium chloride (KCl) solution to each soil sample to be tested. The amount of nitrogen in the form of ammonium (NH4^+) and nitrate (NO3^−) were then determined.
# The amount of ammonium was determined using the well-known Berthelot reaction in which ammonia is chlorinated to monochloroamine, which then reacts with salicylate to form 5-aminosalicylate. After oxidation and oxidative coupling, a green color complex was formed which was measured at 660 nm using a spectrophotometer.
# The determination of nitrate was determined based on the reduction of nitrate (NO3) to […] (NO2) by hydrazinium sulfate or cadmium metal. […]
# [1] = 0.75 wt. % DCD based on nitrogen in urea solution, Wk. 0
# [2] = 1.5 wt. % DCD Based on the Weight of Nitrogen in the Fertilizer, Wk. 0
# [3] = 3 wt. % DCD Based on the Weight of Nitrogen in the Fertilizer, Wk. 0
compound,measurement,setting,value
"NC(N)=O [C1, urea]",Ammonium (NH4^+),[1],0.39 mg N
same,Nitrate (NO3^−),[1],1.27 mg N
same,Ammonium (NH4^+),"0.75 wt. % DCD, Wk. 1",6.81 mg N
same,Nitrate (NO3^−),"0.75 wt. % DCD, Wk. 1",3.61 mg N
same,Ammonium (NH4^+),"0.75 wt. % DCD, Wk. 2",4.21 mg N
same,Nitrate (NO3^−),"0.75 wt. % DCD, Wk. 2",6.37 mg N
same,Ammonium (NH4^+),"0.75 wt. % DCD, Wk. 3",2.14 mg N
same,Nitrate (NO3^−),"0.75 wt. % DCD, Wk. 3",8.38 mg N
same,Ammonium (NH4^+),"0.75 wt. % DCD, Wk. 4",0.18 mg N
same,Nitrate (NO3^−),"0.75 wt. % DCD, Wk. 4",10.45 mg N
same,Ammonium (NH4^+),"0.75 wt. % DCD, Wk. 5",0.08 mg N
same,Nitrate (NO3^−),"0.75 wt. % DCD, Wk. 5",10.69 mg N
same,Ammonium (NH4^+),"0.75 wt. % DCD, Wk. 6",0.08 mg N
same,Nitrate (NO3^−),"0.75 wt. % DCD, Wk. 6",10.66 mg N
same,Ammonium (NH4^+),"0.75 wt. % DCD, Wk. 7",0.09 mg N
same,Nitrate (NO3^−),"0.75 wt. % DCD, Wk. 7",10.85 mg N
same,Ammonium (NH4^+),"0.75 wt. % DCD, Wk. 8",0.10 mg N
same,Nitrate (NO3^−),"0.75 wt. % DCD, Wk. 8",10.97 mg N
same,Ammonium (NH4^+),"0.75 wt. % DCD, Wk. 10",0.04 mg N
same,Nitrate (NO3^−),"0.75 wt. % DCD, Wk. 10",10.98 mg N
same,Ammonium (NH4^+),[2],0.39 mg N
same,Nitrate (NO3^−),[2],1.27 mg N
same,Ammonium (NH4^+),"1.5 wt. % DCD, Wk. 1",6.81 mg N
same,Nitrate (NO3^−),"1.5 wt. % DCD, Wk. 1",3.61 mg N
same,Ammonium (NH4^+),"1.5 wt. % DCD, Wk. 2",4.21 mg N
same,Nitrate (NO3^−),"1.5 wt. % DCD, Wk. 2",6.37 mg N
same,Ammonium (NH4^+),"1.5 wt. % DCD, Wk. 3",2.14 mg N
same,Nitrate (NO3^−),"1.5 wt. % DCD, Wk. 3",8.38 mg N
same,Ammonium (NH4^+),"1.5 wt. % DCD, Wk. 4",0.18 mg N
same,Nitrate (NO3^−),"1.5 wt. % DCD, Wk. 4",10.45 mg N
same,Ammonium (NH4^+),"1.5 wt. % DCD, Wk. 5",0.08 mg N
same,Nitrate (NO3^−),"1.5 wt. % DCD, Wk. 5",10.69 mg N
same,Ammonium (NH4^+),"1.5 wt. % DCD, Wk. 6",0.08 mg N
same,Nitrate (NO3^−),"1.5 wt. % DCD, Wk. 6",10.66 mg N
same,Ammonium (NH4^+),"1.5 wt. % DCD, Wk. 7",0.09 mg N
same,Nitrate (NO3^−),"1.5 wt. % DCD, Wk. 7",10.85 mg N
same,Ammonium (NH4^+),"1.5 wt. % DCD, Wk. 8",0.10 mg N
same,Nitrate (NO3^−),"1.5 wt. % DCD, Wk. 8",10.97 mg N
same,Ammonium (NH4^+),"1.5 wt. % DCD, Wk. 10",0.04 mg N
same,Nitrate (NO3^−),"1.5 wt. % DCD, Wk. 10",10.98 mg N
same,Ammonium (NH4^+),[3],0.39 mg N
same,Nitrate (NO3^−),[3],1.27 mg N
same,Ammonium (NH4^+),"3 wt. % DCD, Wk. 1",6.81 mg N
same,Nitrate (NO3^−),"3 wt. % DCD, Wk. 1",3.61 mg N
same,Ammonium (NH4^+),"3 wt. % DCD, Wk. 2",4.21 mg N
same,Nitrate (NO3^−),"3 wt. % DCD, Wk. 2",6.37 mg N
same,Ammonium (NH4^+),"3 wt. % DCD, Wk. 3",2.14 mg N
same,Nitrate (NO3^−),"3 wt. % DCD, Wk. 3",8.38 mg N
same,Ammonium (NH4^+),"3 wt. % DCD, Wk. 4",0.18 mg N
same,Nitrate (NO3^−),"3 wt. % DCD, Wk. 4",10.45 mg N
same,Ammonium (NH4^+),"3 wt. % DCD, Wk. 5",0.08 mg N
same,Nitrate (NO3^−),"3 wt. % DCD, Wk. 5",10.69 mg N
same,Ammonium (NH4^+),"3 wt. % DCD, Wk. 6",0.08 mg N
same,Nitrate (NO3^−),"3 wt. % DCD, Wk. 6",10.66 mg N
same,Ammonium (NH4^+),"3 wt. % DCD, Wk. 7",0.09 mg N
same,Nitrate (NO3^−),"3 wt. % DCD, Wk. 7",10.85 mg N
same,Ammonium (NH4^+),"3 wt. % DCD, Wk. 8",0.10 mg N
same,Nitrate (NO3^−),"3 wt. % DCD, Wk. 8",10.97 mg N
same,Ammonium (NH4^+),"3 wt. % DCD, Wk. 10",0.04 mg N
same,Nitrate (NO3^−),"3 wt. % DCD, Wk. 10",10.98 mg N
